The values below come from patent publication US9409884B2 (Rigel Pharmaceuticals, Inc., priority 2012, dated 2016).

A value given as a limit tells only on which side of the number the result lay.

For the test, the target named is AMPK. Description: AMPK activation, enzyme-linked immunosorbent assay. The note with it: Table 9, compounds of Table 2. It is filed as biochemical. The gist of the method:
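Read-out: ELISA, used to detect compound-driven activation of AMPK.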
For `O=C(NC1CCN(Cc2cccnc2)CC1)c1ccc2[nH]c3c(c2c1)CN(Cc1ccc(C(F)(F)F)cc1)CC3` [Compound 2-11, N-(1-(pyridin-3-ylmethyl)piperidin-4-yl)-2-(4-(trifluoromethyl)benzyl)-2,3,4,5-tetrahydro-1H-pyrido[4,3-b]indole-8-carboxamide], the EC50 is below 500 nM.
For the compound `N#Cc1ccc(CN2CCC(NC(=O)c3ccc4[nH]c5c(c4c3)CN(Cc3ccc(C(F)(F)F)cc3)CC5)CC2)cc1` [Compound 2-12, N-(1-(4-cyanobenzyl)piperidin-4-yl)-2-(4-(trifluoromethyl)benzyl)-2,3,4,5-tetrahydro-1H-pyrido[4,3-b]indole-8-carboxamide], the EC50 was below 500 nM.
The compound `O=C(NC1CCN(Cc2ccc(C(F)(F)F)cc2)CC1)c1ccc2[nH]c3c(c2c1)CN(Cc1ccc(C(F)(F)F)cc1)CC3` [Compound 2-13, N-(1-(4-trifluoromethylbenzyl)piperidin-4-yl)-2-(4-(trifluoromethyl)benzyl)-2,3,4,5-tetrahydro-1H-pyrido[4,3-b]indole-8-carboxamide] registered an EC50 below 500 nM.
Then `O=C(NC1CCN(CCc2ccccc2)CC1)c1ccc2[nH]c3c(c2c1)CN(Cc1ccc(C(F)(F)F)cc1)CC3` [Compound 2-14, N-(1-phenethylpiperidin-4-yl)-2-(4-(trifluoromethyl)benzyl)-2,3,4,5-tetrahydro-1H-pyrido[4,3-b]indole-8-carboxamide], with below 500 nM; and `O=C(NC1CCN(c2ccc(F)cc2)CC1)c1ccc2[nH]c3c(c2c1)CN(Cc1ccc(C(F)(F)F)cc1)CC3` [Compound 2-15, N-(1-(4-fluorophenyl)piperidin-4-yl)-2-(4-(trifluoromethyl)benzyl)-2,3,4,5-tetrahydro-1H-pyrido[4,3-b]indole-8-carboxamide], with below 500 nM; and `Cn1c2c(c3cc(C(=O)NC4CCN(Cc5ccc(C#N)cc5)CC4)ccc31)CN(Cc1ccc(C(F)(F)F)cc1)CC2` [Compound 2-16, N-(1-(4-cyanobenzyl)piperidin-4-yl)-5-methyl-2-(4-(trifluoromethyl)benzyl)-2,3,4,5-tetrahydro-1H-pyrido[4,3-b]indole-8-carboxamide], with below 500 nM.
For the compound `Cn1c2c(c3cc(C(=O)NC4CCN(Cc5ccc(C(F)(F)F)cc5)CC4)ccc31)CN(Cc1ccc(C(F)(F)F)cc1)CC2` [Compound 2-17, N-(1-(4-trifluoromethylbenzyl)piperidin-4-yl)-5-methyl-2-(4-(trifluoromethyl)benzyl)-2,3,4,5-tetrahydro-1H-pyrido[4,3-b]indole-8-carboxamide], the EC50 is 500 to 1000 nM.
In the case of `Cn1c2c(c3cc(C(=O)NC4CCN(Cc5cccnc5)CC4)ccc31)CN(Cc1ccc(C(F)(F)F)cc1)CC2` [Compound 2-18, 5-methyl-N-(1-(pyridin-3-ylmethyl)piperidin-4-yl)-2-(4-(trifluoromethyl)benzyl)-2,3,4,5-tetrahydro-1H-pyrido[4,3-b]indole-8-carboxamide], the EC50 was 1000 to 5000 nM.
As to `O=C(NC1CCN(Cc2ccccc2)CC1)c1ccc2[nH]c3c(c2c1)CN(S(=O)(=O)c1ccc(C(F)(F)F)cc1)CC3` [Compound 2-19, N-(1-benzylpiperidin-4-yl)-2-(4-(trifluoromethyl)phenylsulfonyl)-2,3,4,5-tetrahydro-1H-pyrido[4,3-b]indole-8-carboxamide], the EC50 is above 100000 nM.
In the case of `CC(=O)n1c2c(c3cc(C(=O)NC4CCN(Cc5cccnc5)CC4)ccc31)CN(Cc1ccc(C(F)(F)F)cc1)CC2` [Compound 2-20, 5-acetyl-N-(1-(pyridin-3-ylmethyl)piperidin-4-yl)-2-(4-(trifluoromethyl)benzyl)-2,3,4,5-tetrahydro-1H-pyrido[4,3-b]indole-8-carboxamide], the concentration giving a half-maximal response (EC50) is 1000 to 5000 nM.
The value for `N#Cc1ccc(S(=O)(=O)N2CCC(NC(=O)c3ccc4[nH]c5c(c4c3)CN(Cc3ccc(C(F)(F)F)cc3)CC5)CC2)cc1` [Compound 2-21, N-(1-(4-cyanophenylsulfonyl)piperidin-4-yl)-2-(4-(trifluoromethyl)benzyl)-2,3,4,5-tetrahydro-1H-pyrido[4,3-b]indole-8-carboxamide] was 500 to 1000 nM.
